Results taken from US20250304623A1, “PEPTIDES FOR INTRACELLULAR DELIVERY” (UNIVERSIDADE DE SANTIAGO DE COMPOSTELA, priority 2022, published 2025).
Starred links: 1 amine or outer side, 2 acyl side, 3 side chain; linkers in the order of their positions; H or OH if unused. Residues, ends and D or L forms follow the SMILES beside them. Groups on a side chain read outwards from the residue. *: point of attachment. Glutaryl = O=C(CCCC(=O)[*:2])[*:1]; NHNH2 = NN*

Key:
Format in all cases: cell-based
[1] = test system: ARPE19 cells expressing EGFP; test: Cas9-RNP delivery against EGFP (gene editing, plate reader), ARPE19
Procedure: (§1) To generate an EGFP expressing HeLa cell line, HeLa cells were transfected with EGFP pDNA (pEGFP-C1, Clontech) and stable transfectants were selected with 400 μg/mL of G-418 (Millipore). Green clones were selected by epifluorescence microscopy and tested for EGFP expression stability through several passages. […] All other EGFP-expressing cell lines were obtained in a similar way from parent non-EGFP-expressing cell lines.
Cells expressing EGFP were seeded in a 96 well plate the day before the experiment at a concentration of 50,000 cell/mL (100 μL/w) in DMEM+10% FBS+1% Gln-Abt. For robotic library screening, the delivery of Cas9-RNP against EGFP (RNP designed to knock-out the gene encoding for the enhanced green fluorescent protein (EGFP)) was performed. For RNP assembly, 9.2 μL of crRNA and 9.2 μL of tracrRNA were mixed in 211.6 μL of Nuclease-Free Duplex Buffer (IDT), incubated for 5 min at 95° C. and slowly cooled at rt (see I. Lostalé-Seijo, et al. Peptide/Cas9 nanostructures for ribonucleoprotein cell membrane transport and gene edition, Chem. Sci., 2017). Cas9 protein was dissolved in DMEM at a final concentration of 4 μM and equal volumes of the RNA complex and Cas9 were mixed and incubated for 5 min at rt. 75 μL of the corresponding amphiphile concentrations were added to 5 μL of RNP at 2 μM. The mixture was shaken for 30 min at room temperature before the addition to the cells. The cell medium was aspirated, and cells were washed twice with PBS. Cells were covered with 30 μL of DMEM and 20 μL of the RNP/amphiphile complexes were added to the cells (final peptide concentrations=2.5, 5 and 10 μM; final Cas9-RNP concentration=50 nM) and incubated for 4 h. After the incubation, the medium was replaced by 100 μL of fresh DMEM supplemented with 10% FBS. The total EGFP fluorescence was quantified after 72 h in a plate reader (FIG. 2, Table 1 (right) and Table 6). All experiments were done in triplicate. […]
(§2) Tables 26-31 show the mean (triplicates) percentage of gene editing, accounted by GFP fluorescence intensity decrease (% of reduction), measured after the transfection of Cas9-RNP by different amphiphiles at different concentrations in a variety of cell lines. Background values, accounted by untreated control cells, were subtracted for processing.

[2] = test system: ARPE19 cells expressing EGFP; test: EGFP-targeting siRNA delivery (GFP silencing vs siMOCK), ARPE19
Procedure: as §1
Cells expressing EGFP were seeded in a 96 well plate the day before the experiment at a concentration of 50,000 cell/mL (100 μL/w) in DMEM+10% FBS+1% Gln-Abt. For robotic library screening, the delivery of an EGFP-targeting siRNA (EGFP: enhanced green fluorescent protein, Ambion® Silencer® GFP Positive Control siRNA (siGFP) (AM4626)) in six different cell lines expressing EGFP was performed. […] The mixture was shaken for 30 min at room temperature (rt) before the addition to the cells. The cell medium was aspirated, and cells were washed twice with PBS. Finally, 50 μL of the solution of siRNA/amphiphile complexes were added to the cells and incubated for 4 h. After transfection, the medium was replaced by 100 μL of fresh DMEM supplemented with 10% FBS. The fluorescence knockdown was quantified after 72 h in a plate reader, by comparison with cells transfected with a non-targeting siRNA control (siMOCK, Silencer™ Negative Control No. 1 siRNA (siMOCK) (AM4611)). EGFP knockdown was compared with Lipofectamine® RNAiMAX silencing efficiency (30-60% depending on cell line, defined with a numeric value in the below tables). All experiments were done in triplicate.
Tables 1-7: RLuc (pDNA) or EGFP (mRNA) expression levels were normalized to Lipofectamine reagents (value=1) and expressed as fold-times signal increase. In the case of siRNA, the siRNA treated cells fluorescence was compared with siMOCK control fluorescence, while Cas9-RNP mediated knockout was measured against the fluorescence of untreated cells. In both siRNA and Cas9-RNP, values are expressed as % fluorescence reduction. Amphiphile concentration was 5 μM in all cases. All experiments were performed in triplicate.
as §2, with “20-25” for “26-31”, “GFP-silencing,” for “gene editing,”, “by” for “by GFP”, “relative to a non-targeting siRNA (siMOCK) control,” for “(% of reduction),”, “siRNA” for “Cas9-RNP”

HCT116 cells = test: RLuc pDNA delivery, robotic library screening, HCT116

Compound | percentage of gene editing, GFP fluorescence intensity decrease (% of reduction) ([1]; Myristoleyl, 15 μM) | percentage of gene editing, GFP fluorescence intensity decrease (% of reduction) ([1]; Oleyl, 5 μM) | percentage of gene editing, GFP fluorescence intensity decrease (% of reduction) ([1]; Oleyl, 10 μM) | percentage of gene editing, GFP fluorescence intensity decrease (% of reduction) ([1]; Palmitoleyl, 5 μM) | percentage of gene editing, GFP fluorescence intensity decrease (% of reduction) ([1]; Palmitoleyl, 10 μM) | percentage of GFP-silencing relative to siMOCK ([2]; Dodecanal, 5 μM) | percentage of GFP-silencing relative to siMOCK ([2]; Myristoleyl, 10 μM) | percentage of GFP-silencing relative to siMOCK ([2]; Oleyl, 10 μM) | percentage of GFP-silencing relative to siMOCK ([2]; Oleyl, 15 μM) | percentage of GFP-silencing relative to siMOCK ([2]; Palmitoleyl, 10 μM) | percentage of GFP-silencing relative to siMOCK ([2]; Palmitoleyl, 15 μM) | percentage of GFP-silencing relative to siMOCK ([2]; Petroselinyl, 5 μM) | mean luminescent intensity (RLuc pDNA) (HCT116 cells; Myristoleyl, 5 μM) | mean luminescent intensity (RLuc pDNA) (HCT116 cells; Myristoleyl, 15 μM) | mean luminescent intensity (RLuc pDNA) (HCT116 cells; Palmitoleyl, 5 μM) | mean luminescent intensity (RLuc pDNA) (HCT116 cells; Petroselinyl, 5 μM) | mean luminescent intensity (RLuc pDNA) (HCT116 cells; Petroselinyl, 10 μM) | mean luminescent intensity (RLuc pDNA) (HCT116 cells; Petroselinyl, 15 μM) | percentage of GFP-silencing relative to siMOCK ([2]; Dodecanal, 15 μM) | mean luminescent intensity (RLuc pDNA) (HCT116 cells; Dodecanal, 10 μM) | further results
CC(=O)N[C@@H](CCCNC(=N)N)C(=O)N[C@@H](CCCCNC(=O)CCCC(=O)NN)C(=O)N[C@@H](Cc1c[nH]cn1)C(=O)N[C@@H](CCCNC(=N)N)C(=O)N[C@@H](CCCCNC(=O)CCCC(=O)NN)C(=O)N[C@@H](CCCCNC(=O)CCCC(=O)NN)C(=O)N[C@@H](Cc1c[nH]cn1)C(N)=O [7.3(L-H), Ac-RK*HRK*K*H-NH2] (Ac-RK([Glutaryl-NHNH2])HRK([Glutaryl-NHNH2])K([Glutaryl-NHNH2])H-NH2) | 12% | 1% | 6% | 37% | 31% | 10% | 45% | 47% | 46% | 65% | 40% | 5% | 193237 RLU | 42433 RLU | 294813 RLU | 147949 RLU | 114522 RLU | 48178 RLU | – | – | percentage of gene editing, GFP fluorescence intensity decrease (% of reduction) ([1]; Myristoleyl, 5 μM): 19%; percentage of gene editing, GFP fluorescence intensity decrease (% of reduction) ([1]; Oleyl, 15 μM): 15%; percentage of gene editing, GFP fluorescence intensity decrease (% of reduction) ([1]; Petroselinyl, 5 μM): 18%; percentage of GFP-silencing relative to siMOCK ([2]; Myristoleyl, 5 μM): 45%; percentage of GFP-silencing relative to siMOCK ([2]; Oleyl, 5 μM): 15%; percentage of GFP-silencing relative to siMOCK ([2]; Palmitoleyl, 5 μM): 49%; mean luminescent intensity (RLuc pDNA) (HCT116 cells; Myristoleyl, 10 μM): 172603 RLU; mean luminescent intensity (RLuc pDNA) (HCT116 cells; Palmitoleyl, 10 μM): 248907 RLU; mean luminescent intensity (RLuc pDNA) (HCT116 cells; Palmitoleyl, 15 μM): 89543 RLU; pDNA delivery, times better than Lipofectamine 2000 (HCT116 cells; palmitoleyl aldehyde): up to 10 times
Ac-RHLK*RHK*RRLK*RH-NH2 (Ac-RHLKRHKRRLKRH-NH2; not fully specified (residues 4, 7, 11); printed as Ac-RHLK*RHK*RRLK*RH-NH2; also: linker on K* not given here) [13(3His)] | – | – | – | – | – | 16% | 42% | 43% | 41% | 49% | 25% | 13% | 94125 RLU | 738 RLU | 109244 RLU | 19145 RLU | 45000 RLU | 8961 RLU | 22% | 7176 RLU | percentage of gene editing, GFP fluorescence intensity decrease (% of reduction) ([1]; Petroselinyl, 15 μM): 34%; percentage of GFP-silencing relative to siMOCK ([2]; Myristoleyl, 15 μM): 30%; percentage of GFP-silencing relative to siMOCK ([2]; Petroselinyl, 10 μM): 56%; percentage of GFP-silencing relative to siMOCK ([2]; Petroselinyl, 15 μM): 30%; mean luminescent intensity (RLuc pDNA) (HCT116 cells; Dodecanal, 5 μM): 22167 RLU
Ac-RHLK*RLK*RRLK*RL-NH2 (Ac-RHLKRLKRRLKRL-NH2; not fully specified (residues 4, 7, 11); printed as Ac-RHLK*RLK*RRLK*RL-NH2; also: linker on K* not given here) [13(Arg-His)] | 9% | 14% | −6% | 25% | −12% | 60% | 0% | 29% | 31% | −6% | 7% | 42% | – | −246 RLU | 244732 RLU | 105576 RLU | – | 4534 RLU | 34% | 20219 RLU | percentage of gene editing, GFP fluorescence intensity decrease (% of reduction) ([1]; Dodecanal, 5 μM): 25%; percentage of gene editing, GFP fluorescence intensity decrease (% of reduction) ([1]; Dodecanal, 15 μM): 21%; percentage of gene editing, GFP fluorescence intensity decrease (% of reduction) ([1]; Myristoleyl, 10 μM): 15%; percentage of gene editing, GFP fluorescence intensity decrease (% of reduction) ([1]; Palmitoleyl, 15 μM): 20%; percentage of gene editing, GFP fluorescence intensity decrease (% of reduction) ([1]; Petroselinyl, 15 μM): 15%; percentage of GFP-silencing relative to siMOCK ([2]; Dodecanal, 10 μM): 54%; percentage of GFP-silencing relative to siMOCK ([2]; Myristoleyl, 15 μM): 14%; percentage of GFP-silencing relative to siMOCK ([2]; Palmitoleyl, 5 μM): 51%; percentage of GFP-silencing relative to siMOCK ([2]; Petroselinyl, 10 μM): 24%; percentage of GFP-silencing relative to siMOCK ([2]; Petroselinyl, 15 μM): 26%; mean luminescent intensity (RLuc pDNA) (HCT116 cells; Dodecanal, 5 μM): 237160 RLU; mean luminescent intensity (RLuc pDNA) (HCT116 cells; Dodecanal, 15 μM): 2518 RLU; mean luminescent intensity (RLuc pDNA) (HCT116 cells; Oleyl, 5 μM): 18755 RLU; mean luminescent intensity (RLuc pDNA) (HCT116 cells; Oleyl, 10 μM): 2608 RLU
Ac-RK*LRK*K*L-NH2 (Ac-RK(NHNH2)LRK(NHNH2)K(NHNH2)L-NH2; not fully specified; printed as Ac-RK*LRK*K*L-NH2; also: K*2,K*5,K*6: native or modified lysine (ε-amide to a linker)) [Peptide 7.3] | – | 22% | 35% | 7% | 9% | 15% | – | – | – | – | −5% | – | 1060 RLU | 212 RLU | – | 62932 RLU | 58529 RLU | 16332 RLU | 45% | 1049 RLU | percentage of gene editing, GFP fluorescence intensity decrease (% of reduction) ([1]; Dodecanal, 5 μM): 9%; percentage of gene editing, GFP fluorescence intensity decrease (% of reduction) ([1]; Dodecanal, 10 μM): 14%; percentage of gene editing, GFP fluorescence intensity decrease (% of reduction) ([1]; Oleyl, 15 μM): 42%; percentage of gene editing, GFP fluorescence intensity decrease (% of reduction) ([1]; Palmitoleyl, 15 μM): 12%; percentage of gene editing, GFP fluorescence intensity decrease (% of reduction) ([1]; Petroselinyl, 5 μM): 25%; percentage of gene editing, GFP fluorescence intensity decrease (% of reduction) ([1]; Petroselinyl, 10 μM): 13%; percentage of GFP-silencing relative to siMOCK ([2]; Dodecanal, 10 μM): 35%; mean luminescent intensity (RLuc pDNA) (HCT116 cells; Dodecanal, 15 μM): 1534 RLU; mean luminescent intensity (RLuc pDNA) (HCT116 cells; Myristoleyl, 10 μM): 7147 RLU
